PubChem BioAssay AID1963981 (Molecular Pharmacology Branch, DTP, NCI, 2024)
pIC50: −log10 of the molar value. Values joined by “and” are separate entries in the source; they are usually repeats but may differ in a detail not shown here. Equal values may be shown once.

System: 354836-022-R-J1-PDC multicell spheroid viability
Assay: Anticancer human tumor 354836-022-R-J1-PDC patient-derived head and neck squamous cell carcinoma cell line growth inhibition [PI3K]
Conditions: for viability, T/C: stronger effect = lower value
Method in brief: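 Stroma-containing spheroids: tumor line, pooled-donor HUVEC, hMSC. Treatments: targeted agents with PI3K inhibitors. Dosing: clinically relevant, half-log spacing, 10 microM ceiling without known Cmax. Read-out: cell viability.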

[1] = curve of first compound, second compound 0.0316 µM
[2] = curve of first compound, second compound 0.1 µM
[3] = curve of first compound, second compound 0.316 µM
[4] = curve of first compound, second compound 1 µM
[5] = second compound 0.0316 µM, first compound 0.0316 µM
[6] = second compound 0.0316 µM, first compound 0.1 µM
[7] = second compound 0.1 µM, first compound 0.0316 µM
[8] = second compound 0.1 µM, first compound 0.1 µM
[9] = second compound 0.316 µM, first compound 0.0316 µM
[10] = second compound 0.316 µM, first compound 0.1 µM
[11] = second compound 1 µM, first compound 0.0316 µM
[12] = second compound 1 µM, first compound 0.1 µM
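Further: spheroids exposed to agents for seven days before the viability read.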

Structure (SMILES): CC(C)n1nc(-c2ccc3oc(N)nc3c2)c2c(N)ncnc21 + CC(Nc1ncnc2nc[nH]c12)c1cc2cccc(Cl)c2c(=O)n1-c1ccccc1
- pIC50 [1]: 7.81
- pIC50 [2]: 7.66
- pIC50 [3]: 7.79
- pIC50 [4]: 7.81
- pIC50 (curve of first compound, second compound 3.16 µM): 7.71
- pIC50 (curve of first compound, second compound 10 µM): 7.77
- viability, T/C (second compound 0.0316 µM, first compound 0.000316 µM): 88.2%
- viability, T/C (second compound 0.0316 µM, first compound 0.001 µM): 96.5%
- viability, T/C (second compound 0.0316 µM, first compound 0.00316 µM): 79.9%
- viability, T/C (second compound 0.0316 µM, first compound 0.01 µM): 57%
- viability, T/C [5]: 35.3%
- viability, T/C [6]: 5.53%
- viability, T/C (second compound 0.1 µM, first compound 0.000316 µM): 97.8%
- viability, T/C (second compound 0.1 µM, first compound 0.001 µM): 102%
- viability, T/C (second compound 0.1 µM, first compound 0.00316 µM): 81.1%
- viability, T/C (second compound 0.1 µM, first compound 0.01 µM): 86.3%
- viability, T/C [7]: 32.8%
- viability, T/C [8]: 4.44%
- viability, T/C (second compound 0.316 µM, first compound 0.000316 µM): 92.6%
- viability, T/C (second compound 0.316 µM, first compound 0.001 µM): 101%
- viability, T/C (second compound 0.316 µM, first compound 0.00316 µM): 80.7%
- viability, T/C (second compound 0.316 µM, first compound 0.01 µM): 61.2%
- viability, T/C [9]: 34.9%
- viability, T/C [10]: 6.09%
- viability, T/C (second compound 1 µM, first compound 0.000316 µM): 113%
- viability, T/C (second compound 1 µM, first compound 0.001 µM): 98.2%
- viability, T/C (second compound 1 µM, first compound 0.00316 µM): 92.7%
- viability, T/C (second compound 1 µM, first compound 0.01 µM): 59.5%
- viability, T/C [11]: 31.6%
- viability, T/C [12]: 5.81%
- viability, T/C (second compound 3.16 µM, first compound 0.000316 µM): 105%
- viability, T/C (second compound 3.16 µM, first compound 0.001 µM): 99%
- viability, T/C (second compound 3.16 µM, first compound 0.00316 µM): 73.1%
- viability, T/C (second compound 3.16 µM, first compound 0.01 µM): 68.1%
- viability, T/C (second compound 3.16 µM, first compound 0.0316 µM): 40.9%
- viability, T/C (second compound 3.16 µM, first compound 0.1 µM): 5.66%
- viability, T/C (second compound 10 µM, first compound 0.000316 µM): 95.5%
- viability, T/C (second compound 10 µM, first compound 0.001 µM): 101%
- viability, T/C (second compound 10 µM, first compound 0.00316 µM): 89.2%
- viability, T/C (second compound 10 µM, first compound 0.01 µM): 62.7%
- viability, T/C (second compound 10 µM, first compound 0.0316 µM): 33.3%
- viability, T/C (second compound 10 µM, first compound 0.1 µM): 6.25%

Structure (SMILES): CC1(C)CCC(Nc2ncc(C(F)(F)F)c(-c3c[nH]c4c(P(C)(C)=O)c(C#N)ccc34)n2)CN1 (stereo unspecified) + CC(Nc1ccc2c(c1)OCCn1cc(N3C(=O)OCC3C(F)F)nc1-2)C(N)=O
- pIC50 (curve of first compound, second compound 0.00316 µM): > 7.50
- pIC50 (curve of first compound, second compound 0.01 µM): > 7.50
- pIC50 [1]: > 7.50
- pIC50 [2]: > 7.50
- pIC50 [3]: > 7.50
- pIC50 [4]: > 7.50
- viability, T/C (second compound 0.00316 µM, first compound 0.0316 µM): 21.5%
- viability, T/C (second compound 0.00316 µM, first compound 0.1 µM): 18.9%
- viability, T/C (second compound 0.00316 µM, first compound 0.316 µM): 21.4%
- viability, T/C (second compound 0.00316 µM, first compound 1 µM): 22.9%
- viability, T/C (second compound 0.00316 µM, first compound 3.16 µM): 32.5%
- viability, T/C (second compound 0.00316 µM, first compound 10 µM): 2.76%
- viability, T/C (second compound 0.01 µM, first compound 0.0316 µM): 28.1%
- viability, T/C (second compound 0.01 µM, first compound 0.1 µM): 18.5%
- viability, T/C (second compound 0.01 µM, first compound 0.316 µM): 27.8%
- viability, T/C (second compound 0.01 µM, first compound 1 µM): 25.4%
- viability, T/C (second compound 0.01 µM, first compound 3.16 µM): 32.9%
- viability, T/C (second compound 0.01 µM, first compound 10 µM): 2.41%
- viability, T/C [5]: 16.7%
- viability, T/C [6]: 21.1%
- viability, T/C (second compound 0.0316 µM, first compound 0.316 µM): 16.9%
- viability, T/C (second compound 0.0316 µM, first compound 1 µM): 19%
- viability, T/C (second compound 0.0316 µM, first compound 3.16 µM): 23.6%
- viability, T/C (second compound 0.0316 µM, first compound 10 µM): 1.33%
- viability, T/C [7]: 18.6%
- viability, T/C [8]: 15.8%
- viability, T/C (second compound 0.1 µM, first compound 0.316 µM): 22.1%
- viability, T/C (second compound 0.1 µM, first compound 1 µM): 16.2%
- viability, T/C (second compound 0.1 µM, first compound 3.16 µM): 22.3%
- viability, T/C (second compound 0.1 µM, first compound 10 µM): 1.47%
- viability, T/C [9]: 12.8%
- viability, T/C [10]: 15.8%
- viability, T/C (second compound 0.316 µM, first compound 0.316 µM): 14.7%
- viability, T/C (second compound 0.316 µM, first compound 1 µM): 19.9%
- viability, T/C (second compound 0.316 µM, first compound 3.16 µM): 18.3%
- viability, T/C (second compound 0.316 µM, first compound 10 µM): 1.99%
- viability, T/C [11]: 14.1%
- viability, T/C [12]: 13%
- viability, T/C (second compound 1 µM, first compound 0.316 µM): 14.1%
- viability, T/C (second compound 1 µM, first compound 1 µM): 16.6%
- viability, T/C (second compound 1 µM, first compound 3.16 µM): 19.3%
- viability, T/C (second compound 1 µM, first compound 10 µM): 1.51%

Structure (SMILES): CNC(=O)c1ccc(N2C(=S)N(c3ccc(C#N)c(C(F)(F)F)c3)C(=O)C2(C)C)cc1F
- viability, T/C (compound 0.0316 µM): 106% [middle of 4 runs]
- viability, T/C (compound 0.1 µM): 102% [middle of 4 runs]
- viability, T/C (compound 0.316 µM): 96.3% and 107% (2×) and 116%
- viability, T/C (compound 1 µM): 100% [middle of 4 runs]
- viability, T/C (compound 3.16 µM): 99.1% and 122% and 104% (2×)
- viability, T/C (compound 10 µM): 96.7% [middle of 4 runs]
- pIC50 (curve of compound): < 5.00
